# Test results from US20120196899A1, “METHODS AND PRODUCTS FOR TREATING INFLAMMATION” (Rock Creek Pharmaceuticals, Inc., priority 2010, published 2012).
# Where “and” joins values, the source holds several entries; their conditions need not be identical. Equal values may be shown once. Entries after “also recorded” stand apart in the source; their conditions may differ.
# Experiments:
# [1] = molecular target: T1, nAChR α7 (Homo sapiens, UniProt P36544); assay: nAChR α7 positive allosteric modulator assay (FLIPR); assay type: cell-based; conditions: with 30 μM Ach (= 0%), 30 μM Ach + 10 μM PNU-120596 = 100%
# T1 construct: host or cells: CHO cells
# T1 sequence (P36544 23-502): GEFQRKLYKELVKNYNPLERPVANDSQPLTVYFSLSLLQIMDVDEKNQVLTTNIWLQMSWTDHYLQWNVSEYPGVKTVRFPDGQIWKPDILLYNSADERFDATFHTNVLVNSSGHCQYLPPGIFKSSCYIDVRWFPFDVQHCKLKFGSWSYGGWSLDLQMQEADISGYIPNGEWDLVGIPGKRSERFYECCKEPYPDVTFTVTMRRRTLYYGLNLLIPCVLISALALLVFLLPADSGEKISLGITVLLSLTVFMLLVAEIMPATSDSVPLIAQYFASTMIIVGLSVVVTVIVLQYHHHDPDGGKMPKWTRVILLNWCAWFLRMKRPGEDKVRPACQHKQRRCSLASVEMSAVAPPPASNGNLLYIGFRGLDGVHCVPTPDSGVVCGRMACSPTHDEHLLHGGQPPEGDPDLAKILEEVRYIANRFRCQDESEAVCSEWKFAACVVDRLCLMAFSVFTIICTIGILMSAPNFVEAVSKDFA
# Protocol: The following three (3) channels were evaluated: • 1. nAChR α3/β4 (encoded by the human CHRNA3 and CHRNB4 gene and stably expressed in CHO cells); • 2. nAChR α4/β2 (CHRNA4 and CHRNB2 gene and transiently expressed in HEK293 cells); and • 3. nAChR α7 (encoded by the human nicotinic α7 gene coexpressed in CHO cells with the chaperone RIC-3 encoded by the human RIC3 gene).
# The ability of each test article to act as an agonist, a positive allosteric modulator or antagonist of three nAChR receptor channels was evaluated in the presence of 0.1 atropine. Both test articles were evaluated for responses on each nAChR channel at eight (8) concentrations: 0.3, 1, 3, 10, 30, 100, 300, and 1000 μM (n=4 for each concentration).
# HEK293 or CHO cells were transiently or stably transfected with the appropriate human ion channel cDNAs. Stable transfectants were selected by coexpression with the antibiotic-resistance gene(s) incorporated into the expression plasmid(s). Selection pressure was maintained by including selection antibiotics in the culture medium. HEK293 cells were cultured in Dulbecco's Modified Eagle Medium/Nutrient Mixture F-12 (D-MEM/F-12) supplemented with 10% fetal bovine serum, 100 U/mL penicillin G sodium, 100 g/mL streptomycin sulfate and appropriate selection antibiotics. CHO cells were cultured in Ham's F-12 supplemented with 10% fetal bovine serum, 100 U/mL penicillin G sodium, 100 g/mL streptomycin sulfate and appropriate selection antibiotics.
# For FLIPR TETRA™ assay, cells were plated in 384-well black wall, flat clear bottom microtiter plates (Type: BD Biocoat Poly-D-Lysine Multiwell Cell Culture Plate) at 20,000 to 30,000 cells per well (384-well plate). Cells were incubated at 37° C. overnight or until the cells reached a sufficient density in the wells (near confluent monolayer) to use in fluorescence assays. For α4β2 assay, cells were incubated at 27° C. for at least 7 hours before use.
# Experiments were performed with either the FLIPR calcium sensitive dye kit (Fluo-8, ABDbioquest, for nAChR α3/β4 and nAChR α7) or FLIPR membrane potential kit (Molecular Devices, for nAChR α4/β2) according to the manufacturer's instructions. Briefly, cells were incubated with 201 dye for 30 min at 37° C. After dye loading period, for the agonist assay, 5 μl of the test, vehicle, or control articles at concentration of 5 times of final concentration were applied to the cells without stimulation. For the positive allosteric modulation (PAM) and antagonist assay, after test article application, the cells were stimulated with either low dose (for PAM) or high dose (for antagonist) of Ach.
# The ability of each test article to act as a positive allosteric modulator of nicotinic α7 was carried out in the presence of the positive control agonist (30 μM Ach) alone. The signal elicited in the presence of the positive control agonist and allosteric modulator PNU-120596 (30 μM Ach+10 μM PNU-120596) was set to 100% and the signal from the agonist control (30 μM Ach) was set to 0%. Values were considered significant and in bold font if the test article mean was three or more standard deviations above the agonist control mean.
# [2] = Urinalysis, day 15; assay type: in vivo, Sprague-Dawley rats; conditions: Dose is 0.75 mg/kg nicotine
# Description: (§1) On day 15, urine was collected on all surviving animals for urinalysis. The animals were euthanized and bled via cardiac puncture. Blood was collected for hematology, clinical chemistry, and coagulation analysis. Tissues were collected, weighed, and stored in 10% neutral-buffered formalin for possible future analysis.
# There were no notable differences between the active treatment groups and controls and the observations are all consistent with those expected for this species.
# [3] = Physical signs after single i.v. dose (Example 3); assay type: in vivo, Sprague-Dawley rats; conditions: nicotine 0.4 mg/kg single i.v.; all males and two females
# Protocol: Four aliquots of each dose level formulation were collected and stored at −80° C. The test compound, corresponding dose level, number of animals, and sample collection times for Phase I of the study are shown in Table 3. The test compound, corresponding dose level, number of animals, and sample collection times for Phase II of the study are shown in Table 4. The physical signs of each animal were monitored following administration of the test compound.
# [4] = Necropsy observations and organ weights, day 15; assay type: in vivo, Sprague-Dawley rats
# Protocol: Body weight and food consumption was measured daily for 14 days. On day 15, urine was collected on all surviving animals. The animals were euthanized and bled via cardiac puncture, and blood was collected for analysis. Tissues were collected, weighed, evaluated for gross abnormalities, and stored in 10% neutral-buffered formalin.
# as §1
# [5] = system: TNFα-induced NFκB activity; assay: NFκB luciferase assay (inhibition of TNFα-induced NFκB activity) in HEK293 reporter cells; assay type: cell-based, Human; conditions: HEK293 reporter cells challenged with TNFα for three hours
# Protocol: The smokeless tobacco used in these experiments was plain long-leaf Copenhagen tobacco purchased from a local vendor. Crude extract was extracted with methanol and water and clarified by centrifugation and filtration. The alkaloid extract was prepared from sodium hydroxide and methanol extraction, organic phase separation and purification. All treatment samples were prepared as a function of weight (μg/ml), and all samples were diluted in DMSO.
# Human […] kidney cells (HEK293) transfected with an NFκB luciferase reporter were challenged with TNFα for three hours, then samples were applied to the challenged cells.
# [6] = individual animals E1-E10 (M and F)
# [7] = individual animals E1-E10 (M and F), tartrate, 0.75 mg/kg
# [8] = Group E, 0.75 mg/kg, females, individual animals, tartrate, 0.75 mg/kg
# [9] = Group E, 0.75 mg/kg, males, individual animals, tartrate, 0.75 mg/kg
# [10] = female animals, 0.75 mg/kg, group mean
# [11] = nicotine 0.75 mg/kg single i.v., male rats
smiles,measurement,setting,value
C1=CCC(c2cccnc2)NC1 (racemic) [Anatabine (racemate)],Normalized % Potentiation,[1]; test conc 0.3 μM,−0.94%
same,Normalized % Potentiation,[1]; test conc 1 μM,−1.05%
same,Normalized % Potentiation,[1]; test conc 3 μM,−0.82%
same,Normalized % Potentiation,[1]; test conc 10 μM,−0.51%
same,Normalized % Potentiation,[1]; test conc 30 μM,−0.57%
same,Normalized % Potentiation,[1]; test conc 100 μM,−0.64%
same,Normalized % Potentiation,[1]; test conc 300 μM,−0.74%
same,Normalized % Potentiation,[1]; test conc 1000 μM,−1.05%
"CN1CCCC1c1cccnc1.O=C(O)C(O)C(O)C(=O)O (single isomer, unassigned; (-)) [Nicotine, (−) Nicotine hydrogen tartrate, reference compound]",Urinalysis VOLUME,[2]; animal E6 (F),10 UL
same,Urinalysis CLARITY,[2]; [6],HAZY
same,Urinalysis COLOR,[2]; [6],YELLOW
same,Urinalysis GLUCOSE,[2]; [6],NEGATIVE
same,Urinalysis KETONES,[2]; [6],NEGATIVE
same,Urinalysis UROBILINOGEN,[2]; [6],NORMAL
same,Urinalysis VOLUME,[2]; [6],<0.5 mL
same,Urinalysis PROTEIN,[2]; [7],NEGATIVE; also recorded: TRACE
same,Urinalysis SPEC GRAVITY,[2]; [7],1.054 and 1.058 and 1.046 and 1.047 and 1.052
same,Urinalysis pH,[2]; [7],6 and 6.5 (2×) and 7 and 7.5
same,physical signs,[3],experienced tremors immediately post dose
same,Tissue Collection Weights: Brain,[4]; [8],1.77 g and 1.93 g and 1.87 g
same,Tissue Collection Weights: Heart,[4]; [8],1.09 g and 1.06 g and 0.83 g
same,Tissue Collection Weights: Kidneys,[4]; [8],2.34 g and 2.29 g (2×)
same,Tissue Collection Weights: Liver,[4]; [8],9.48 g and 10.11 g and 9.18 g
same,Tissue Collection Weights: Lungs,[4]; [8],1.20 g and 1.48 g and 1.28 g
same,Tissue Collection Weights: Ovaries/uterus,[4]; [8],1.59 g and 0.92 g and 1.32 g
same,Tissue Collection Weights: Small intestine,[4]; [8],0.41 g and 0.40 g and 0.28 g
same,Tissue Collection Weights: Spleen,[4]; [8],0.46 g (2×) and 0.76 g
same,Tissue Collection Weights: Thymus,[4]; [8],0.54 g and 0.48 g (2×)
same,Tissue Collection Weights: Brain,[4]; [9],2.06 g and 1.90 g and 1.84 g and 1.94 g
same,Tissue Collection Weights: Heart,[4]; [9],1.20 g and 1.17 g and 1.21 g and 1.42 g
same,Tissue Collection Weights: Kidneys,[4]; [9],3.19 g and 3.04 g and 2.87 g and 3.01 g
same,Tissue Collection Weights: Liver,[4]; [9],11.97 g and 12.52 g and 12.06 g
same,Tissue Collection Weights: Lungs,[4]; [9],1.84 g and 1.49 g and 1.62 g and 1.66 g
same,Tissue Collection Weights: Prostate,[4]; [9],0.41 g and 0.28 g (2×) and 0.45 g
same,Tissue Collection Weights: Small intestine,[4]; [9],0.71 g and 0.56 g and 0.53 g and 0.40 g
same,Tissue Collection Weights: Spleen,[4]; [9],0.81 g and 0.62 g and 0.78 g and 0.86 g
same,Tissue Collection Weights: Testes,[4]; [9],3.05 g and 3.13 g and 3.02 g and 2.92 g
same,Tissue Collection Weights: Thymus,[4]; [9],0.54 g and 0.46 g and 0.56 g and 0.76 g
same,Organ Weight Brain,[4]; [10],1.86 g
same,Organ Weight Heart,[4]; [10],0.99 g
same,Organ Weight Kidneys,[4]; [10],2.31 g
same,Organ Weight Liver,[4]; [10],9.59 g
same,Organ Weight Lungs,[4]; [10],1.32 g
same,Organ Weight Ovaries/uterus,[4]; [10],1.28 g
same,Organ Weight Small intestine,[4]; [10],0.36 g
same,Organ Weight Spleen,[4]; [10],0.56 g
same,Organ Weight Thymus,[4]; [10],0.50 g
same,"Organ Weight Brain, Mean",[4]; [11],1.94 g
same,"Organ Weight Heart, Mean",[4]; [11],1.25 g
same,"Organ Weight Kidneys, Mean",[4]; [11],3.03 g
same,"Organ Weight Liver, Mean",[4]; [11],12.69 g
same,"Organ Weight Lungs, Mean",[4]; [11],1.65 g
same,"Organ Weight Prostate, Mean",[4]; [11],0.36 g
same,"Organ Weight Small intestine, Mean",[4]; [11],0.55 g
same,"Organ Weight Spleen, Mean",[4]; [11],0.77 g
same,"Organ Weight Testes, Mean",[4]; [11],3.03 g
same,"Organ Weight Thymus, Mean",[4]; [11],0.58 g
same,TNFα-induced NFκB-mediated transcription of luciferase,[5],reduce TNFα-induced NFκB-mediated transcription
